Legend:
Type in all cases: binding
Settings in all cases: Compound Concentration 10 µM
[1] = biological target: T1, panel of 442 kinases (Homo sapiens, UniProt Q7KZI7)
T1 construct: purchased KINOMEscan
Description: (§1) We assessed the selectivity of members of this scaffold using the KINOMEscan methodology across a near comprehensive panel of 442 kinases [[18,27]].

[2] = biological target: T2, panel of 442 kinases (Homo sapiens, UniProt Q15208)
T2 construct: purchased KINOMEscan
Description: as §1

[3] = biological target: T3, panel of 442 kinases (Homo sapiens, UniProt P42336, E542K)
T3 construct: purchased KINOMEscan
Description: as §1

T1 sequence (Q7KZI7 whole entry): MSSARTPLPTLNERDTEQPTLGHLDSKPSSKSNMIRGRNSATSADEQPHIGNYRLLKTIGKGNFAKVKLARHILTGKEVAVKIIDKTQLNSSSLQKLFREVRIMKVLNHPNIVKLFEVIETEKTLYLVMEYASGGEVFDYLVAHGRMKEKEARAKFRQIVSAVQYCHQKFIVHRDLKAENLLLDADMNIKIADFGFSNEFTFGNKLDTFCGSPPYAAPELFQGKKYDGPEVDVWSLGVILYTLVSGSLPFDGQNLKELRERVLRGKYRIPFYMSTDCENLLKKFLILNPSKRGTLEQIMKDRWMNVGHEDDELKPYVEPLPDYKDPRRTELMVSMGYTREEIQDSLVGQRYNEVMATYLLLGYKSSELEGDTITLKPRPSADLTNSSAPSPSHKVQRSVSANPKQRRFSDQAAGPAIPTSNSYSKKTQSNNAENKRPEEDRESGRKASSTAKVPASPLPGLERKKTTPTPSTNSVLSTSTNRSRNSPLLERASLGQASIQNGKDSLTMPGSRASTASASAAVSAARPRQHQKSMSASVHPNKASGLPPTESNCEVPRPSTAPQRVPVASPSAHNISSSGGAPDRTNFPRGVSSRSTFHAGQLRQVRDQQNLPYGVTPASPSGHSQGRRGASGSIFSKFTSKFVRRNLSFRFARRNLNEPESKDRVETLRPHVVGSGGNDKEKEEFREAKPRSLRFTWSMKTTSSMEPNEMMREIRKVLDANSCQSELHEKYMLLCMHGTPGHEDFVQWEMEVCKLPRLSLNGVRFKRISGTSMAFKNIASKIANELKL
T2 sequence (Q15208 whole entry): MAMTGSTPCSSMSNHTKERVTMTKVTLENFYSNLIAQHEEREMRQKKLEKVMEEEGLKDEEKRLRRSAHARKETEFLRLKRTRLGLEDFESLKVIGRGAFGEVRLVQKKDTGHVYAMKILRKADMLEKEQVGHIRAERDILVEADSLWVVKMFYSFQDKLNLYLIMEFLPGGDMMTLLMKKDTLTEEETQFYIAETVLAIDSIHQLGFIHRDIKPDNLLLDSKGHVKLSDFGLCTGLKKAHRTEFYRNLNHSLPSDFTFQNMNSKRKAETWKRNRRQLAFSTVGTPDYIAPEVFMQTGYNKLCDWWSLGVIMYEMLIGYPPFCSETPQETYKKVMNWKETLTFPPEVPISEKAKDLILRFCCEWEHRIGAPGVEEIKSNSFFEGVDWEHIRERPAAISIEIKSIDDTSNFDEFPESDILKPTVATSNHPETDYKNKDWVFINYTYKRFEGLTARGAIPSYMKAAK
T3 sequence (P42336 whole entry E542K): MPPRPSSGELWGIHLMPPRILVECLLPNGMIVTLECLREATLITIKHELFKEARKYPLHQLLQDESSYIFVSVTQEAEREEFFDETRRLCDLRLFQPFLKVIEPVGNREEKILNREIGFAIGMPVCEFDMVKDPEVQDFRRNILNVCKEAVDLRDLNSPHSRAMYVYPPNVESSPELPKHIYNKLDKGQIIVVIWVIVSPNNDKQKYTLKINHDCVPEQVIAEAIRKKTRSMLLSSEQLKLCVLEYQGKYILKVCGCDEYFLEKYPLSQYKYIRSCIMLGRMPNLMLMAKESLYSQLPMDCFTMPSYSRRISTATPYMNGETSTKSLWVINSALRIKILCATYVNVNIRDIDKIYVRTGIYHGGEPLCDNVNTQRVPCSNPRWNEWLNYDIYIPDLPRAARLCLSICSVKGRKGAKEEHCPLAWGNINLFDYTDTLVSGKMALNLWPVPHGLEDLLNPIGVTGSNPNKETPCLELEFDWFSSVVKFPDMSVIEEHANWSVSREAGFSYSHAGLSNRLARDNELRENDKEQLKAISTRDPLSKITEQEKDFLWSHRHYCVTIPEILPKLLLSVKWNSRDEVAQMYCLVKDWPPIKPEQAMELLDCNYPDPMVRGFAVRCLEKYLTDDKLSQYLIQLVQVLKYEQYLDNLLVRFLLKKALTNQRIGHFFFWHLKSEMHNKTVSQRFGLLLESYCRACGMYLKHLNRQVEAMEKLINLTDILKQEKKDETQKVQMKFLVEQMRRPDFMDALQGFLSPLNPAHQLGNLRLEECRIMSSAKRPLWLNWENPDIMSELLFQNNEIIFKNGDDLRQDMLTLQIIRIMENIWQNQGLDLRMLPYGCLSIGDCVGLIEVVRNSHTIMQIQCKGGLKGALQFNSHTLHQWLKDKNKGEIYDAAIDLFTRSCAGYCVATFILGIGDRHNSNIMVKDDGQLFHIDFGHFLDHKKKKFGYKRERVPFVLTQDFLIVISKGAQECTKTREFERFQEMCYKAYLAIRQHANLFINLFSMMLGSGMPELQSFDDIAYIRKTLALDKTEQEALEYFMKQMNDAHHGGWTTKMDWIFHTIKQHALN

| Compound | KINOMEscan: MARK2 [1] | KINOMEscan: NDR1 [2] | KINOMEscan: PIK3CA(E542K) [3] |
| --- | --- | --- | --- |
| COc1cc(C(=O)N2CCC(N3CCN(C)CC3)CC2)ccc1Nc1ncc2c(n1)N(C)c1ccccc1C(=O)N2C [15 (LRRK2-IN-1)] | 100 | 96 | 77 |
| COc1cc(C(=O)N2CCC(N3CCN(C)CC3)CC2)ccc1Nc1ncc2c(n1)N(C1CCCC1)c1ccccc1C(=O)N2C [Compound 25, 11-cyclopentyl-2-((2-methoxy-4-(4-(4-methylpiperazin-1-yl)piperidine-1-carbonyl)phenyl)amino)-5-methyl-5H-benzo[e]pyrimido[5,4-b][1,4]diazepin-6(11H)-one] | 98 | 100 | 98 |
| CCOc1cc(C(=O)N2CCC(N3CCN(C)CC3)CC2)ccc1Nc1ncc2c(n1)N(C1CCCC1)c1ccccc1C(=O)N2C [Compound 26] | 96 | 100 | 100 |
